Measured values as given in patent US10195198B2, “Methods and compositions for treating diseases and conditions” (Afferent Pharmaceuticals Inc., priority 2014, dated 2019).
Entries after “also recorded” stand apart in the source; their conditions may differ.

What was measured:
carotid sinus nerve [1] = assay: isolated carotid body/carotid sinus nerve preparation, wild-type mouse
From the text: FIGS. 1A-1D show the effects of Compound A, a benzyl-diaminopyrimidine P2X3 antagonist which is seen to reduce carotid sinus nerve activity and excitatory responses to hypoxia and ATP (or analogs), in an isolated preparation of carotid body/carotid sinus nerves. […] As shown, the dual P2X3 and P2X2/3 antagonist Compound A attenuates basal tonic firing and hypoxia-induced excitation of carotid sinus afferents in an isolated carotid body preparation of mouse. […] The IC50 is in the range between 10-30 μM.

carotid sinus nerve [2] = assay: isolated carotid body/carotid sinus nerve preparation, P2X2 KO mouse (homotrimeric P2X3 mediated responses)
carotid sinus nerve [3] = assay: isolated carotid body/carotid sinus nerve preparation, P2X3 KO mouse (homotrimeric P2X2 mediated responses)

Row | SMILES | IC50 (carotid sinus nerve [1]; Mus musculus, wild type preparations, reversible, read-out: IC50 for inhibition of the response of sinus nerve to hypoxia) [µM] | basal tonic firing and hypoxia-induced excitation of carotid sinus afferents (carotid sinus nerve [1]; wild-type mouse isolated carotid body preparation) | basal tonic firing and hypoxia, α,β-MeATP induced excitation of carotid sinus afferents (carotid sinus nerve [2]; P2X2 KO mouse isolated carotid body preparation) | potency compared with wild type (carotid sinus nerve [2]; P2X2 KO mouse, lower concentrations effective) | basal tonic firing and hypoxia or ATP-induced excitation of carotid sinus afferents (carotid sinus nerve [3])
1 | COc1cc(Cc2cnc(N)nc2N)c(C(C)C)cc1OC [Compound A] | 10 to 30 | attenuates; also recorded: attenuation | attenuates | Greater potency; also recorded: more sensitively observed | fails to attenuate; also recorded: no longer sensitive to inhibition
2 | Cc1nc(N=Nc2ccc(S(=O)(=O)O)cc2S(=O)(=O)O)c(COP(=O)(O)O)c(C=O)c1O [PPADS] |  |  |  |  | inhibitory activity
